Patent US20110230481A2, “DERIVATIVES OF TETRABROMOBENZIMIDAZOLE, A PROCESS FOR THE PREPARATION THEREOF, A PHARMACEUTICAL COMPOSITION COMPRISING THE SAME, A METHOD OF USING THE SAME, A METHOD FOR MODULATING OR REGULATING SERINE/THREONINE KINASES, AND SERINE/THREONINE KINASES MODULATING AGENT” (SELVITA S.A., priority 2009, published 2011)

Assays:
Assay in all cases: KINOMEscan Max
Format in all cases: binding
[1] = molecular target: ABL1(E255K)-phosphorylated) (Homo sapiens, UniProt P00519, E255K)
Method in brief: (§1)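 Measures binding, not catalysis: three components (DNA-tagged kinase, immobilized active-site directed ligand, test compound) are combined, and competition is read out by quantitative PCR of the tag.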

[2] = molecular target: ABL1(Y253F)-phosphorylated (Homo sapiens, UniProt P00519, Y253F)
Method in brief: as §1

[3] = molecular target: T1, BIKE (Homo sapiens, UniProt Q9NSY1)
T1 construct: purchased Ambit (KINOMEscan Max service)
Method in brief: as §1

[4] = molecular target: T2, BRAF (Homo sapiens, UniProt P15056)
T2 construct: DNA tag (qPCR label); purchased Ambit Kinomescan (contract screening)
Method in brief: as §1

[5] = molecular target: T3, CDKL3 (Homo sapiens, UniProt Q8IVW4)
T3 construct: purchased Ambit Kinomescan (contract screening)
Method in brief: as §1

[6] = molecular target: T4, CLK3 (Homo sapiens, UniProt P49761)
T4 construct: purchased Ambit (KINOMEscan Max service)
Method in brief: as §1

[7] = molecular target: T5, DMPK (Homo sapiens, UniProt Q09013)
T5 construct: purchased Ambit (KINOMEscan Max panel service)
Method in brief: as §1

[8] = molecular target: T6, EGFR(L747-T751del.Sins) (Homo sapiens, UniProt P00533, DEL747-750/T751S); conditions: 1 μM
T6 construct: purchased Ambit (KINOMEscan Max panel service)
Method in brief: as §1

[9] = molecular target: T7, EGFR(T790M) (Homo sapiens, UniProt P00533, T790M); conditions: 1 μM
T7 construct: purchased Ambit (KINOMEscan Max panel service)
Method in brief: as §1

[10] = molecular target: EPHA2 (Homo sapiens, UniProt P29317)
Method in brief: as §1

[11] = molecular target: T8, EPHA6 (Homo sapiens, UniProt Q9UF33)
T8 construct: purchased Ambit (KINOMEscan Max panel service)
Method in brief: as §1

[12] = molecular target: T9, FGFR1 (Homo sapiens, UniProt P11362)
T9 construct: purchased Ambit Kinomescan (contract panel, KINOMEscan Max)
Method in brief: as §1

[13] = molecular target: T10, IKK-alpha (Homo sapiens, UniProt O15111)
T10 construct: DNA tag (qPCR read-out); purchased Ambit Kinomescan
Method in brief: as §1

[14] = molecular target: T11, LCK (Homo sapiens, UniProt P06239)
T11 construct: purchased Ambit Kinomescan (contract panel)
Method in brief: as §1

[15] = molecular target: T12, LKB1 (Homo sapiens, UniProt Q15831)
T12 construct: purchased Ambit Kinomescan (contract screening)
Method in brief: as §1

[16] = molecular target: T13, MAP3K4 (Homo sapiens, UniProt Q9Y6R4)
T13 construct: purchased Ambit Kinomescan (contract panel)
Method in brief: as §1

[17] = molecular target: T14, MAPKAPK5 (Homo sapiens, UniProt Q8IW41)
T14 construct: purchased Ambit Kinomescan (contract panel)
Method in brief: as §1

[18] = molecular target: MRCKA (Homo sapiens, UniProt Q5VT25)
Method in brief: as §1

[19] = molecular target: MST1 (Homo sapiens, UniProt Q13043); conditions: 1 μM
Method in brief: as §1

[20] = molecular target: PCTK3 (Homo sapiens, UniProt Q07002)
Method in brief: as §1

[21] = molecular target: PHKG2 (Homo sapiens, UniProt P15735)
Method in brief: as §1

[22] = molecular target: T15, PIK3CA(I800L) (Homo sapiens, UniProt P42336, I800L)
T15 construct: DNA tag (qPCR read-out)
Method in brief: as §1

[23] = molecular target: T16, PKAC-beta (Homo sapiens, UniProt P22694)
T16 construct: purchased Ambit (KINOMEscan Max service)
Method in brief: as §1

[24] = molecular target: T17, PRKX (Homo sapiens, UniProt P51817)
T17 construct: DNA tag (qPCR read-out)
Method in brief: as §1

[25] = molecular target: T18, RIOK3 (Homo sapiens, UniProt O14730)
T18 construct: DNA tag (qPCR read-out)
Method in brief: as §1

[26] = molecular target: T19, RPS6KA5(Kin.Dom.1-N-terminal) (Homo sapiens, UniProt O75582)
T19 construct: RPS6KA5(Kin.Dom.1-N-terminal); DNA tag (qPCR read-out)
Method in brief: as §1

[27] = molecular target: T20, RSK1(Kin.Dom.1-N-terminal) (Homo sapiens, UniProt Q15418)
T20 construct: RSK1(Kin.Dom.1-N-terminal); DNA tag (qPCR read-out)
Method in brief: as §1

[28] = molecular target: T21, SBK1 (Homo sapiens, UniProt Q52WX2)
T21 construct: purchased Ambit (KINOMEscan Max service)
Method in brief: as §1

[29] = molecular target: T22, SGK3 (Homo sapiens, UniProt Q96BR1)
T22 construct: DNA tag (qPCR read-out)
Method in brief: as §1

[30] = molecular target: T23, SRC (Homo sapiens, UniProt P12931)
T23 construct: purchased Ambit Kinomescan (contract screening)
Method in brief: as §1

[31] = molecular target: T24, TIE1 (Homo sapiens, UniProt P35590)
T24 construct: purchased Ambit Kinomescan (contract screening service)
Method in brief: as §1

[32] = molecular target: T25, TLK1 (Homo sapiens, UniProt Q9UKI8)
T25 construct: DNA tag (qPCR read-out)
Method in brief: as §1

[33] = molecular target: p38-beta (Homo sapiens, UniProt Q15759)
Method in brief: as §1

T9 sequence (P11362 22-822): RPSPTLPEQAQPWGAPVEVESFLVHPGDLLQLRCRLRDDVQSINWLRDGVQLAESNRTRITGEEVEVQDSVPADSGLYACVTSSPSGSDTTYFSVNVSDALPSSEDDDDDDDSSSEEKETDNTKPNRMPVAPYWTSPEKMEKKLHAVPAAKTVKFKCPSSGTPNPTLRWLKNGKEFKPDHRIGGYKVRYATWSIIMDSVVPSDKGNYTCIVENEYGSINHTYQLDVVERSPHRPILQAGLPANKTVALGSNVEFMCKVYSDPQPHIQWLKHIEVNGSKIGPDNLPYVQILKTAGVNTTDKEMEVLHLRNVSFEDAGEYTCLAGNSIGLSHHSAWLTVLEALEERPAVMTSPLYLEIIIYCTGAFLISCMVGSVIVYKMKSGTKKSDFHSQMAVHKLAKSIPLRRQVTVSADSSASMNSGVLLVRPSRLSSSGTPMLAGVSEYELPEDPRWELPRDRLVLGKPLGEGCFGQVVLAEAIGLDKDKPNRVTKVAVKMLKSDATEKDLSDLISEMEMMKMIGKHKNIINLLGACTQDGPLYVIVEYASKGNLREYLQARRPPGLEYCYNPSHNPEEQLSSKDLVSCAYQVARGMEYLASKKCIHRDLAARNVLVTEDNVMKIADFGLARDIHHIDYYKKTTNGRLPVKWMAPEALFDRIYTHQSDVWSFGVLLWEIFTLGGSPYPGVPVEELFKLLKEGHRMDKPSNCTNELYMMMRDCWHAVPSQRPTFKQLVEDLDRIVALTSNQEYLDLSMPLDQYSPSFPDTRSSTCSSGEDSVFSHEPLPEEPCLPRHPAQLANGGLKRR
T24 sequence (P35590 22-1138): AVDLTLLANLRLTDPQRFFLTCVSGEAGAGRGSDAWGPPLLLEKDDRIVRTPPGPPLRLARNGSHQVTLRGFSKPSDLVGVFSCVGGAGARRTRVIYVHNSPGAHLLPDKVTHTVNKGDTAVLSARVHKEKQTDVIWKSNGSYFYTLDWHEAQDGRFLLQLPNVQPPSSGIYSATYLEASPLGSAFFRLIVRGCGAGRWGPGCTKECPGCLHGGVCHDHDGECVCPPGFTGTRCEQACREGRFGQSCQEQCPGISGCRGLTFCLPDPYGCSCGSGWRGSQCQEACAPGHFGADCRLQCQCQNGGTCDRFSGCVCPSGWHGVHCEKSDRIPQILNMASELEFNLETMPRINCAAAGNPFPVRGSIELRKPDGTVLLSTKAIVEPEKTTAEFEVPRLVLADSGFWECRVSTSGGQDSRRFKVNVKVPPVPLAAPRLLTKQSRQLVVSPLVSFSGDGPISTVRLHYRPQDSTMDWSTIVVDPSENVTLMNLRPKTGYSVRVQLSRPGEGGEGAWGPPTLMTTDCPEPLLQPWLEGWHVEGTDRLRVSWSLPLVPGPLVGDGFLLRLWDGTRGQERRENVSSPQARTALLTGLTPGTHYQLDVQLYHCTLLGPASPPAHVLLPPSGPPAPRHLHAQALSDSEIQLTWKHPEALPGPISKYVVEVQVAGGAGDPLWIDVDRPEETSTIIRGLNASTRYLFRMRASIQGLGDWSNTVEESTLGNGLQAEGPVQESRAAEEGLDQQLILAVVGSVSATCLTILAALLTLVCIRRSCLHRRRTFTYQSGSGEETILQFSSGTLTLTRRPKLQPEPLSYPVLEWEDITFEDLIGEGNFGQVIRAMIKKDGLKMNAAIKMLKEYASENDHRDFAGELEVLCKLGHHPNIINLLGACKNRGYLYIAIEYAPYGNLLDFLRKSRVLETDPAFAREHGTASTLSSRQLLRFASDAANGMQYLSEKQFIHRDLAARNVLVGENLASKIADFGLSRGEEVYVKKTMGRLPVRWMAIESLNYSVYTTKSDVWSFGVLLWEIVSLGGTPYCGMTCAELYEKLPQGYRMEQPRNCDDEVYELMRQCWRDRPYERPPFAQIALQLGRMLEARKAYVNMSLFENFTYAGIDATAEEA
T13 sequence (Q9Y6R4 whole entry): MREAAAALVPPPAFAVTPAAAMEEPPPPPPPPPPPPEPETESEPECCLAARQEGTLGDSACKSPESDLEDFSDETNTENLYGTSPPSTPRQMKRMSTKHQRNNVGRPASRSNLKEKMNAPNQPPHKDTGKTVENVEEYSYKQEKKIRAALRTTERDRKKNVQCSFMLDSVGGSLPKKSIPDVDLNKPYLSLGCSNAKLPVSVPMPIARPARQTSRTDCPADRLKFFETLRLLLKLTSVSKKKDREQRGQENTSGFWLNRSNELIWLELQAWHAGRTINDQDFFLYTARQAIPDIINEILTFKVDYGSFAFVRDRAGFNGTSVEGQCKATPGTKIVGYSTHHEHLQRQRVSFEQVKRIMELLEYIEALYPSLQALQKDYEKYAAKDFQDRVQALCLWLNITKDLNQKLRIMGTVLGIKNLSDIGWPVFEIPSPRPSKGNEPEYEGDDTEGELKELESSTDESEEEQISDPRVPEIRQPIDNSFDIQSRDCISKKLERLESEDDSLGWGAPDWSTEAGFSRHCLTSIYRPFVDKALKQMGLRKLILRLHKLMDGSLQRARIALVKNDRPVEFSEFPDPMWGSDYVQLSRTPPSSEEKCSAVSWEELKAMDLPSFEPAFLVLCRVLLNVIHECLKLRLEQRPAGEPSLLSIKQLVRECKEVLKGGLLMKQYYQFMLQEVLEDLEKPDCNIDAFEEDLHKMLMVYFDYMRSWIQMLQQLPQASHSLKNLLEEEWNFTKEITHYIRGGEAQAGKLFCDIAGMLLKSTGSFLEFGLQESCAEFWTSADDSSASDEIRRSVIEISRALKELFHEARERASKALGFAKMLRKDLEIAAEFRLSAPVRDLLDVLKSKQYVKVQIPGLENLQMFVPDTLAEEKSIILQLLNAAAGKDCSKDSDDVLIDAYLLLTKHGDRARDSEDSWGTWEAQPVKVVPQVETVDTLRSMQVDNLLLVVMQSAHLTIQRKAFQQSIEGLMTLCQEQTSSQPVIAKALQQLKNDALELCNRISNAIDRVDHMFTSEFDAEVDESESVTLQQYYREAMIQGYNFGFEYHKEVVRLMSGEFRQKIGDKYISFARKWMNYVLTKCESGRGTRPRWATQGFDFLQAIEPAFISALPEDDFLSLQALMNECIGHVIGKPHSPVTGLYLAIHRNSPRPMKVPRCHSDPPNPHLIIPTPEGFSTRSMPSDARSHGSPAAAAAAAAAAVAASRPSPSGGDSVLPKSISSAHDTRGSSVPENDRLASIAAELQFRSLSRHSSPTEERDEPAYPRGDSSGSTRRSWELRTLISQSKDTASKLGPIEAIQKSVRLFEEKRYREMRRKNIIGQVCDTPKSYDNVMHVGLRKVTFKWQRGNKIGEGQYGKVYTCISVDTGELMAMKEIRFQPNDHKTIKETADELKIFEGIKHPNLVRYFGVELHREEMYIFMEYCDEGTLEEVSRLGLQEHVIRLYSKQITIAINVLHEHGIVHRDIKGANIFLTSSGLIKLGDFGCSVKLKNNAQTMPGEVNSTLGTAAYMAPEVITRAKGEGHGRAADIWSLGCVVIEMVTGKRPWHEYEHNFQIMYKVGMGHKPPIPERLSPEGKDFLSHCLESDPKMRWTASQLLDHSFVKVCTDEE
T22 sequence (Q96BR1 whole entry): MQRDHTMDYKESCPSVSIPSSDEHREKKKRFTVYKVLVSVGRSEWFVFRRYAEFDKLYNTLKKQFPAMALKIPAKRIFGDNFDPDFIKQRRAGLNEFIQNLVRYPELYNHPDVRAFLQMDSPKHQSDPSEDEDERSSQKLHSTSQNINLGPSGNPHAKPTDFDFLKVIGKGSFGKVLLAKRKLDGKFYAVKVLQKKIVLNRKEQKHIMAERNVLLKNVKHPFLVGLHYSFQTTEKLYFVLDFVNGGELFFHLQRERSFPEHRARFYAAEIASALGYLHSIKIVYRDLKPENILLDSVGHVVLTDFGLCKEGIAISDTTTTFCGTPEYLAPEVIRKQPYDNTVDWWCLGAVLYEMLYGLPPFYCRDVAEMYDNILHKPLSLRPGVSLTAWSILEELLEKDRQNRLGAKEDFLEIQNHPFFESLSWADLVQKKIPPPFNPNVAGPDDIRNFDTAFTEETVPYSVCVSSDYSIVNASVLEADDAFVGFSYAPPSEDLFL
T6 sequence (P00533 with tags, fused parts or gaps DEL747-750/T751S limits assumed): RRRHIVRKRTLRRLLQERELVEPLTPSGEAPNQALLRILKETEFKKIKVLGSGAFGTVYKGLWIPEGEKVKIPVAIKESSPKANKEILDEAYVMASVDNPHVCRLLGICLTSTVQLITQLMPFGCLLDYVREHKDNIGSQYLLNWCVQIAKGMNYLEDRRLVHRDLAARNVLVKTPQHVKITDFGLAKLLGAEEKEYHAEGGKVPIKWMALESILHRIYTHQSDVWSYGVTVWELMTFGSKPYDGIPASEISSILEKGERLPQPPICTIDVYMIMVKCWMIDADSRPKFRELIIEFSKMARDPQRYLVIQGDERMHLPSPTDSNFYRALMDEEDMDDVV
T23 sequence (P12931 whole entry): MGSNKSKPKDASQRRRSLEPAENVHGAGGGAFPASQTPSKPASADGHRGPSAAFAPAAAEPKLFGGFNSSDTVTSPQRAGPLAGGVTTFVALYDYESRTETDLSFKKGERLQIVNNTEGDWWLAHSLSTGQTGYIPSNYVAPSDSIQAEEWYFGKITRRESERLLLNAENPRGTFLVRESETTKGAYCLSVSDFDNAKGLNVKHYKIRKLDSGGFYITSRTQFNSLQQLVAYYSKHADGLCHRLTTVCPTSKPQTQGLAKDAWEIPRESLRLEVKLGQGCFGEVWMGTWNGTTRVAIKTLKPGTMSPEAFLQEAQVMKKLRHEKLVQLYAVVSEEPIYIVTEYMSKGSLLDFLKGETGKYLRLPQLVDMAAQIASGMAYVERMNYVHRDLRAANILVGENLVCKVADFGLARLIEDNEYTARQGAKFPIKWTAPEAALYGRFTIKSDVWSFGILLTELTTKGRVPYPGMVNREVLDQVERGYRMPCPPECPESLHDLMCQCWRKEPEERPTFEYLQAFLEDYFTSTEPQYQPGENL

For `NCCCNc1nc2c(Br)c(Br)c(Br)c(Br)c2[nH]1` [Compound 11, N-(3-aminopropyl)-4,5,6,7-tetrabromo-1H-benzo[d]imidazol-2-amine], the remaining binding at 1 µM [1] was 95%, the remaining binding at 1 µM [2] was 100% and the remaining binding at 1 µM [3] was 60%. It also gave a remaining binding at 1 µM [4] of 100%, a remaining binding at 1 µM [5] of 98% and a remaining binding at 1 µM [6] of 70%. For the same compound, the remaining binding at 1 µM [7] was 100%, the “% binding” value [8] was 100% and the “% binding” value [9] was 100%. The remaining binding at 1 µM [10] was 92%, the remaining binding at 1 µM [11] was 100% and the remaining binding at 1 µM [12] was 100%. For the same compound, the remaining binding at 1 µM [13] was 24%, the remaining binding at 1 µM [14] was 100% and the remaining binding at 1 µM [15] was 96%. The remaining binding at 1 µM [16] was 100%, the remaining binding at 1 µM [17] was 100% and the remaining binding at 1 µM [18] was 100%. The “% binding” value [19] was 100%, the remaining binding at 1 µM [20] was 92% and the remaining binding at 1 µM [21] was 75%. It also gave a remaining binding at 1 µM [22] of 100%, a remaining binding at 1 µM [23] of 84% and a remaining binding at 1 µM [24] of 100%. It also gave a remaining binding at 1 µM [25] of 52%, a remaining binding at 1 µM [26] of 100% and a remaining binding at 1 µM [27] of 100%. The remaining binding at 1 µM [28] was 59%, the remaining binding at 1 µM [29] was 100% and the remaining binding at 1 µM [30] was 97%. For the same compound, the remaining binding at 1 µM [31] was 100%, the remaining binding at 1 µM [32] was 89% and the remaining binding at 1 µM [33] was 95%.
